Test results: US20250339426A1, “GCN2 MODULATOR FOR TREATING CANCER” (HIBERCELL, INC., priority 2022, published 2025)

Assays:
[1] = system: LNCaP (human prostate cancer cells); assay: In vivo tumor growth inhibition, LNCaP xenograft; design: species or system NOD SCID mice; details: ≥3 mg/kg twice daily oral
Experimental: LNCaP (human prostate cancer cells): Male 6-8 weeks old NOD SCID mice were inoculated subcutaneously on the right flank with LNCaP tumor cells (1×10^7) in 0.1 ml with Matrigel (1:1) in RPMI1640 with 10% fetal bovine serum (FBS) for tumor development. The treatments were started when the mean tumor size reached approximately 207 mm^3 at Day 14 post inoculation and continued until end of study by twice daily oral gavage dosing of HC-7366 at listed doses (vehicle, 0.3 mg/kg HC-7366, 1 mg/kg HC-7366, 3 mg/kg HC-7366, 10 mg/kg HC-7366, or 30 mg/kg HC-7366 twice daily, FIG. 14).
(§1) [formula] • 2.2.2 Tumor Measurements: The measurement of tumor size was conducted three times weekly with a caliper and recorded. The tumor volume (mm^3) was estimated using the formula: TV=a×b^2/2, where “a” and “b” is long and short diameters of a tumor, respectively. Tumor volume was calculated using the formula [tumor volume (mm^3)=π/6×length×width^2).
(§2) Regression was calculated using the formula=100×ΔT/T initial, if ΔT<0. Animals with 0 mm^3 tumor volume (no measurable tumor) for three consecutive measurements were considered as complete responders and animals with 50% tumor regressions were partial responders.

[2] = system: TM00298 (human prostate cancer cells); assay: In vivo tumor growth inhibition, TM00298 PDX; design: species or system NSG mice; details: both 3 mg/kg and 30 mg/kg twice daily oral
Experimental: TM00298 (human prostate cancer cells): Male 6-8 weeks old NSG mice were inoculated subcutaneously with 1 mm^3 TM00298 tumor fragments. The treatments were started when the mean tumor size reached approximately 123 mm^3 and continued until end of study by twice daily oral gavage dosing of HC-7366 at listed doses (vehicle, 3 mg/kg HC-7366, or 30 mg/kg HC-7366, FIG. 15).
as §1, §2

[3] = system: MOLM-16 (human AML cells); assay: In vivo tumor growth inhibition, MOLM-16 xenograft; design: species or system NOD SCID mice
Experimental: MOLM-16 (human AML cells): Female 6-8 weeks old nonobese diabetic/severe combined immunodeficiency (NOD SCID) mice were inoculated subcutaneously on the right flank with MOLM-16 tumor cells (1×10^7) in RPMI 1640 without serum for tumor development. The treatments were started when the mean tumor size reached approximately 220 mm^3 at Day 14 after cell inoculation and continued until end of study by twice daily oral gavage dosing of HC-7366 at listed doses (vehicle, 0.25 mg/kg HC-7366, 0.5 mg/kg HC-7366, 1 mg/kg HC-7366, or 2 mg/kg HC-7366, FIG. 16)
as §1, §2

[4] = Tolerability by body weight in tumor-bearing mice; assay type: in vivo; details: NCI-H1975 study
Experimental: For routine monitoring, all study animals were monitored not only for tumor growth but also behavior such as mobility, food and water consumption (by cage side checking only), body weight (BW), eye/hair matting and any other abnormal effect. Any mortality and/or abnormal clinical signs were recorded. • 2.2.1 Body Weight (BW): Body weights of all animals were measured and recorded three times weekly throughout the study. Body weight change, expressed in %, is calculated using the following formula: […]

[5] = system: human AML cells of model CTG-2229; assay: AML PDX in vivo study, flow cytometry of blood, spleen, bone marrow; design: species or system NCG mice; details: 1 mg/kg PO/BID×28, all tissues
Experimental: Sub-lethally irradiated NCG mice were inoculated with 2×10^6 human AML cells of model CTG-2229. Mice were monitored post AML inoculation to assess human AML engraftment using huCD45/muCD45/huCD33/huCD3 antibodies and BD TruCount™ beads. When individual animals had ≥20% live huCD45 cells in the bone marrow, they were randomized to treatment cohorts. For the efficacy study, animals were administered (n=13/group) with vehicle control, HC-7366 at 1 mg/kg, 10 mg/kg or 30 mg/kg PO/BID×28, or Venetoclax at 100 mg/kg PO/QD×28. Terminal blood, spleen, and bone marrow samples were collected for flow cytometry (FIG. 87). Tolerability was assessed by body weight loss, lethality, and clinical signs of adverse treatment-related side effects. Body weights were measured twice weekly.

[6] = system: HT1080 (human fibrosarcoma cells); assay: In vivo tumor growth inhibition, HT1080 xenograft; design: species or system BALB/c nude mice; details: both 1 and 3 mg/kg, oral gavage
Experimental: HT1080 (human fibrosarcoma cells): Female 6-8 weeks old BALB/c nude mice were inoculated subcutaneously on the right flank with HT1080 tumor cells (1×10^7) in 0.1 ml of EMEM medium without serum for tumor development. The treatments were started when the mean tumor size reached approximately 109 mm^3 at Day 4 post inoculation and continued until end of study by oral gavage dosing of HC-7366 at listed doses (vehicle, 0.3 mg/kg HC-7366 BID (two times per day), 1 mg/kg HC-7366 BID, 3 mg/kg HC-7366 BID, 0.6 mg/kg HC-7366 QD (one time per day), 2 mg/kg HC-7366 QD, or 6 mg/kg HC-7366 QD, FIGS. 6-7).
as §1, §2

FaDu cells = assay: Metabolomics in wild type and GCN2 CRISPR knockout FaDu cells; assay type: cell-based, human; details: 0.1 μM
Experimental: Wild type and GCN2 CRISPR knockout FaDu cells were treated with 0.1 μM for 9 hours, and metabolomics were evaluated.

[7] = system: MFE280 (human endometrial cancer cells); assay: In vivo tumor growth inhibition, MFE280 xenograft; design: species or system Athymic Nude-Foxn1nu mice

CNC(=O)c1ncn2cc(-c3c(F)ccc(NS(=O)(=O)c4cc(Cl)cnc4OC)c3F)ncc12 [HC-7366, 6-(3-((5-chloro-2-methoxypyridine)-3-sulfonamido)-2,6-difluorophenyl)-N-methylimidazo[1,5-a]pyrazine-1-carboxamide]
tumor growth inhibition [1]: 61-65%
tumor growth inhibition [2]: ~70%
effect on xenograft tumors ([3]; 2 mg/kg twice daily oral): complete eradication
effect on xenograft tumors ([3]; other doses (0.25, 0.5, 1 mg/kg twice daily)): tumor growth inhibition
body weight loss [4]: No treatment related body weight loss
myeloid restricted precursor (CD34+CD33+) and mature myeloid cells (CD34−CD33+) [5]: significantly decreased
tumor growth inhibition [6]: up to 80%
ATF4 (FaDu cells; GCN2 dependent manner): induced
level of many amino acids (FaDu cells; wild type FaDu cells, 9 h, GCN2-dependent): enhanced level
tumor growth inhibition ([7]; HC-7366 0.5 mg/kg twice daily oral): 45%
tumor growth inhibition ([7]; HC-7366 2 mg/kg twice daily oral): 53%
